What was measured:
[1] = tested on: ZEB1 expression in MCF10CA1a cells; assay: qPCR ZEB1 mRNA, TGFβ-induced EMT; assay type: cell-based, human; conditions: GC7 10 μM pre-treatment, TGFβ 2.5 ng/mL 48 hours, fibronectin
Description: The pathway in which the inventors are interested in targeting eIF5A is in the context of TGFβ-induced EMT and TGFβ is a well-characterized inducer of EMT. […] Phase-contrast images are shown to the right of the western blot to indicate a shift in morphology after treatment with TGFβ. […] Since TGFβ can induce PEAK1 upregulation, while in contrast, hypusinated eIF5A promotes PEAK1 translation, the inventors sought to see if TGFβ alone can upregulate hypusinated eIF5A. Post-translational modifications can occur relatively fast. Therefore short-term treatments of TGFβ on 4T1, 67NR and MCF10CA1a cells were performed initially. Protein lysates were collected after 10, 30 and 120 minutes of treatment and immunoblotted for hypusine, total eIF5A and β-actin (FIG. 4B). […] Relative band intensity is graphed to the right of the western blot in which the ratio between hypusine to total eIF5A is compared first between treated samples to control samples then a ratio is calculated comparing each time point relative to 10 minutes as a starting time point of reference. […] The inventors were also interested in what genes were altered at the transcriptional level when dual treating with TGFβ and GC7 at the same time to block EMT. […]

4T1 cells = assay: Cell number by phase-contrast images, with TGFβ; assay type: cell-based, mouse; conditions: 10 μM each drug, 96-hour time point
Method: Next, the inventors investigated whether blockade of HDAC6 and DHPS activity could further suppress TGFβ-induced EMT either independently or simultaneously. To test this, 4T1 cells were treated with either TubA at 10 μM, GC7 at 10 μM or both for 48 hours. At this time point, protein lysates were collected as well as phase-contrast images (FIGS. 6B and 6C). At that same time point, the media was changed and the cells were re-treated with the same drugs at the same concentrations; however, this time with the addition of TGFβ at 2.5 ng/mL. The inventors collected protein lysates and phase-contrast images just one day post TGFβ treatment, calling this the 72-hour time point (FIGS. 6B and 6C). In addition, the inventors collected mRNA, protein lysates, phase-contrast and immunofluorescences images two days post TGFβ treatment, calling this the 96-hour time point (FIGS. 6A, 6B, 6C and 6D).
Images were taken of cells plated on a 6 well plate with appropriate conditions or treatments for experiment using widefield-brightfield phase contrast microscopy on a Leica DMI6000 B inverted microscope at 20× magnification.

MCF10CA1h cells = assay: Chicken CAM xenograft, tumor weight and metastasis (human Alu qPCR); assay type: in vivo
Method: FIGS. 11A and 11B. […] Human triple negative MCF10CA1h breast cancer cells were pre-treated with TGFβ and fibronectin for 7 days to induce PEAK1-dependent epithelial-mesenchymal transition and tumorigenic potential. 1e6 cells were xenografted onto the chorioallantoic membrane of 10 day old chicken embryos in 20 uL of growth factor reduced Matrigel, and subsequently treated with a vehicle control, GC7, TubastatinA (TubA) or both GC7/TubA at either 1 uM (panel A) or 10 uM (panel B). Tumors were allowed to develop over the following 7 days and then harvested and weighed along with the indicated liver, lung and brain tissues. gDNA was isolated from these additional tissues to quantify human Alu repeat sequence composition normalized to host chicken GAPDH as a measure of relative cell metastasis to the indicated tissues.
Based on the partially impaired expression of Zeb1 in vitro, we wanted to assess whether this effect would result in altered metastatic dissemination using the in vivo chicken CAM system.

[2] = 1 μM GC7, fibronectin and TGFβ pre-treated cells, 7 days

N=C(N)NCCCCCCCN.O=S(=O)(O)O [GC7, N1-Guanyl-1,7-diaminoheptane]
TGFβ-induced EMT (ZEB1 mRNA) [1]: this EMT was blocked
cell number (4T1 cells): drastic reduction in cell number
metastatic dissemination to lung (MCF10CA1h cells; [2]): significantly reduced
primary tumor mass (MCF10CA1h cells; [2]): unaffected
metastasis (MCF10CA1h cells; low doses of GC7 (1 uM, panel A)): reduces metastasis
